We go through 16 molecules from ChEMBL document CHEMBL3396954, “Synthesis and in vitro biological evaluation of dihydroartemisinyl-chalcone esters” (Eur J Med Chem, 2015).

For orientation: IC50 means the midpoint of a concentration-inhibition curve.

Data set [1] can be described thus: Selectivity index, ratio of IC50 for chloroquine-resistant Plasmodium falciparum W2 to IC50 for human UACC62 cells. The arrangement: species or system UACC-62.
The subject of data set [2] is MCF7. Description: Anticancer activity against human MCF7 cells assessed as inhibition of cell growth after 24 hrs by SRB assay. Format: functional, cell-based. Conditions: MCF7, 24 h. Background: In SRB staining, fixed cells bind dye roughly in proportion to their protein.
Data set [3] has as its system Plasmodium falciparum. Description: Antimalarial activity against chloroquine-resistant Plasmodium falciparum W2 assessed as inhibition of parasite proliferation after 96 hrs by SYBR Green I-based fluorescence method. In kind it is functional, organism-based. Particulars: W2, 96 h.
A short description of data set [4]: Anticancer activity against human UACC62 cells assessed as inhibition of cell growth after 24 hrs by SRB assay. In kind it is functional, cell-based. Particulars: UACC-62, 24 h.
Data set [5] is described as follows: Cytotoxicity against human WI38 cells assessed as inhibition of proliferation after 24 hrs by SRB assay. Format: cell-based. Conditions: WI-38, 24 h.
A short description of data set [6]: Resistance index, ratio of IC50 for chloroquine-resistant Plasmodium falciparum W2 to IC50 for chloroquine-sensitive Plasmodium falciparum 3D7. In kind it is functional.
Data set [7] relates to Plasmodium falciparum. Description: Antimalarial activity against chloroquine-sensitive Plasmodium falciparum 3D7 assessed as inhibition of parasite proliferation after 96 hrs by SYBR Green I-based fluorescence method. Format: functional, organism-based. Conditions: 3D7, 96 h.
Data set [8] can be described thus: Selectivity index, ratio of IC50 for chloroquine-resistant Plasmodium falciparum W2 to IC50 for human TK10 cells. Further details: species or system TK-10.
For another data set, the system named is UACC-62. Description: Selectivity index, ratio of IC50 for human WI38 cells to IC50 for human UACC62 cells. Format: functional.
The subject of data set [9] is MCF7. Description: Selectivity index, ratio of IC50 for human WI38 cells to IC50 for human MCF7 cells. In kind it is functional.
The subject of the next data set is TK-10. Description: Anticancer activity against human TK10 cells assessed as inhibition of cell growth after 24 hrs by SRB assay. Format: functional, cell-based. Conditions: TK-10, 24 h.
Another data set deals with WI-38. Description: Selectivity index, ratio of IC50 for human WI38 cells to IC50 for human TK10 cells. In kind it is functional.
The nature of data set [10]: Selectivity index, ratio of IC50 for human WI38 cells to IC50 for chloroquine-sensitive Plasmodium falciparum 3D7. Particulars: read-out: Ratio IC50. Format: toxicity, cell-based, WI-38.
A short description of data set [11]: Selectivity index, ratio of IC50 for chloroquine-resistant Plasmodium falciparum W2 to IC50 for human MCF7 cells.

Regarding `C[C@@H]1CC[C@H]2[C@@H](C)C(OC(=O)c3ccc(/C=C/C(=O)c4ccccc4)cc3)O[C@@H]3O[C@]4(C)CC[C@@H]1[C@]32OO4` (some centres undefined), the “Ratio IC50” value in [1] is >505; in data set [6] it was 1.1; in data set [8] it was >786; in the data set with UACC-62, >19; in the data set with MCF7 [9], >28; with WI-38, >12. Besides, the “Ratio IC50” value in [11] was >339. Further, the IC50 with MCF7 [2] was 3.59 µM; in the data set with Plasmodium falciparum [3] it was 0.0106 µM; in data set [4], 5.35 µM; in [5], > 100 µM; in the data set on Plasmodium falciparum [7], 0.00973 µM; with TK-10 it was 8.32 µM. For the same molecule, in [10], the selectivity ratio is > 10300.
`C=C1C(=O)O[C@@H]2C3O[C@]3(C)CC/C=C(\C)CC[C@@H]12` (some centres undefined): the IC50 with MCF7 [2] stood at 2.4 µM; in [4], 9.71 µM; with TK-10 it was 3.71 µM.
As to `COc1ccc(C(=O)/C=C/c2ccc(C(=O)O)cc2)cc1OC`, the “Ratio IC50” value in data set [1] is 0.7; in [6], 1; in [8] it was 1.7; in the data set with UACC-62 it was 8.6; in the data set on MCF7 [9], 7.6; with WI-38, 3.6. Further, in data set [11], the “Ratio IC50” value was 0.8. Also, the IC50 in the data set with MCF7 [2] was 8.88 µM; with Plasmodium falciparum [3], 0.0108 µM; in data set [4], 7.87 µM; in [5] it was 67.4 µM; in the data set with Plasmodium falciparum [7], 0.0108 µM; in the data set with TK-10, 18.9 µM. The selectivity ratio in [10] amounted to 6.2.
On to `O=C(O)c1ccc(/C=C/C(=O)c2ccc(Cl)c(Cl)c2Cl)cc1`, for which the “Ratio IC50” value stood at 0.3 in data set [1]; 1.5 in data set [6]; 0.4 in [8]; 1 with UACC-62; 2.3 in the data set with MCF7 [9]; 0.9 with WI-38. For the same molecule, the “Ratio IC50” value in data set [11] stood at 0.1. Also, the IC50 with MCF7 [2] was determined as 8.73 µM; with Plasmodium falciparum [3] it was 0.0622 µM; in data set [4], 19.7 µM; in [5] it was 20.4 µM; in the data set on Plasmodium falciparum [7], 0.041 µM; in the data set with TK-10, 23.6 µM. Besides, the selectivity ratio in data set [10] turned out to be 0.5.
Take `C[C@H]1[C@@H](O)O[C@@H]2O[C@@]3(C)CC[C@H]4[C@H](C)CC[C@@H]1[C@@]24OO3` [ARTENIMOL]: the results for the IC50 in the data set with Plasmodium falciparum [3] and in the data set with Plasmodium falciparum [7] were 0.00131 µM and 0.00145 µM, respectively. In addition, in data set [6], the Ratio IC50 is 0.9.
Take `COc1ccc(C(=O)/C=C/c2ccc(C(=O)OC3O[C@@H]4O[C@]5(C)CC[C@H]6[C@H](C)CC[C@@H]([C@H]3C)[C@@]46OO5)cc2)cc1OC` (some centres undefined): the “Ratio IC50” value was >3556 in [1]; 0.4 in data set [6]; >4105 in data set [8]; >19 in the data set with UACC-62; >29 with MCF7 [9]; >17 in the data set on WI-38. For the same molecule, in [11], the “Ratio IC50” value is given as >2329. Besides, the IC50 is 3.4 µM in the data set with MCF7 [2]; 0.00146 µM in the data set on Plasmodium falciparum [3]; 5.19 µM in data set [4]; > 100 µM in data set [5]; 0.00336 µM in the data set on Plasmodium falciparum [7]; 5.99 µM in the data set on TK-10. The selectivity ratio in data set [10] was > 29800.
For the molecule `COc1ccc(C(=O)/C=C/c2ccc(C(=O)OC3O[C@@H]4O[C@]5(C)CC[C@H]6[C@H](C)CC[C@@H]([C@H]3C)[C@@]46OO5)cc2)c(OC)c1` (some centres undefined), the “Ratio IC50” value in data set [1] is >2123; in data set [6] it was 0.7; in data set [8] it was >10799; in the data set with UACC-62, >23; in the data set on MCF7 [9], >100; with WI-38, >5. Besides, the “Ratio IC50” value in [11] is >500. The IC50 with MCF7 [2] was 1.02 µM; with Plasmodium falciparum [3], 0.00204 µM; in [4], 4.33 µM; in [5] it was > 100 µM; in the data set with Plasmodium falciparum [7] it was 0.00302 µM; in the data set with TK-10 it was 22 µM. For the same molecule, the selectivity ratio in data set [10] was > 33100.
Consider `COc1ccc(C(=O)/C=C/c2ccc(C(=O)OC3O[C@@H]4O[C@]5(C)CC[C@H]6[C@H](C)CC[C@@H]([C@H]3C)[C@@]46OO5)cc2)cc1[N+](=O)[O-]` (some centres undefined), for which the “Ratio IC50” value is >1340 in [1]; 1 in [6]; >3010 in data set [8]; >13 in the data set with UACC-62; >34 in the data set on MCF7 [9]; >6 in the data set with WI-38. Further, in data set [11], the “Ratio IC50” value is recorded as >512. Further, the IC50 with MCF7 [2] was 2.9 µM; in the data set on Plasmodium falciparum [3] it was 0.00566 µM; in [4], 7.58 µM; in [5], > 100 µM; in the data set with Plasmodium falciparum [7] it was 0.00587 µM; in the data set with TK-10 it was 17 µM. Besides, the selectivity ratio in [10] is > 17000.
Turning to `C[C@H]1[C@@H](OC(=O)c2ccc(/C=C/C(=O)c3ccc(Cl)c(Cl)c3Cl)cc2)O[C@@H]2O[C@]3(C)CC[C@H]4[C@H](C)CC[C@@H]1[C@@]24OO3`, the “Ratio IC50” value in data set [1] was 4873.3; in data set [6] it was 0.5; in data set [8] it was 9198.6; in the data set with UACC-62, 2.2; in the data set on MCF7 [9] it was 4.2; in the data set on WI-38, 1.2. The “Ratio IC50” value in [11] is recorded as 2549.7. Moreover, the IC50 in the data set on MCF7 [2] was found to be 14.9 µM; in the data set on Plasmodium falciparum [3], 0.00584 µM; in data set [4], 28.5 µM; in [5] it was 61.9 µM; with Plasmodium falciparum [7], 0.0107 µM; in the data set with TK-10, 53.7 µM. In addition, the selectivity ratio in data set [10] stood at 5800.
As for `C[C@H]1[C@H](OC(=O)CCC(=O)O)O[C@@H]2O[C@@]3(C)CC[C@H]4[C@H](C)CC[C@@H]1[C@@]24OO3` [ARTESUNATE], the figures for the IC50 in the data set with Plasmodium falciparum [3] and in the data set with Plasmodium falciparum [7] were 0.00571 µM and 0.004 µM, respectively.
Turning to `CCN(CC)CCCC(C)Nc1ccnc2cc(Cl)ccc12` (centres undefined) [CHLOROQUINE], the IC50 in data set [5] stood at 3.63 µM.
With `COc1ccc(C(=O)/C=C/c2ccc(C(=O)O)cc2)c(OC)c1`, the “Ratio IC50” value in data set [1] was 0.5; in data set [6], 1; in data set [8], 4; with UACC-62, 7.2; in the data set with MCF7 [9] it was 1.7; in the data set with WI-38, 0.8. The “Ratio IC50” value in data set [11] was 1.9. In addition, the IC50 in the data set on MCF7 [2] is 28.1 µM; in the data set with Plasmodium falciparum [3] it was 0.0148 µM; in data set [4], 6.75 µM; in data set [5], 48.6 µM; in the data set with Plasmodium falciparum [7], 0.0148 µM; in the data set with TK-10, 59.6 µM. Besides, in data set [10], the selectivity ratio is 3.3.
For `O=C(O)c1ccc(/C=C/C(=O)c2ccccc2)cc1`, the “Ratio IC50” value was >0.5 in [1]; 1 in [6]; >1 in [8]; >7 in the data set with UACC-62; >8 with MCF7 [9]; >3 in the data set on WI-38. Also, the “Ratio IC50” value in [11] is given as >0.4. Moreover, the IC50 in the data set with MCF7 [2] is 11.9 µM; in the data set with Plasmodium falciparum [3], 0.0308 µM; in data set [4], 13.9 µM; in data set [5] it was > 100 µM; in the data set with Plasmodium falciparum [7], 0.0295 µM; in the data set with TK-10 it was 29.8 µM. For the same molecule, in [10], the selectivity ratio was > 3.4.
With `Cc1ccc(C(=O)/C=C/c2ccc(C(=O)O[C@@H]3O[C@@H]4O[C@]5(C)CC[C@H]6[C@H](C)CC[C@@H]([C@H]3C)[C@@]46OO5)cc2)o1`, the “Ratio IC50” value in data set [1] turned out to be 2240.1; in [6], 0.7; in data set [8] it was 2451.7; with UACC-62, 21.9; in the data set with MCF7 [9], 21.1; with WI-38 it was 20. In addition, the “Ratio IC50” value in data set [11] is listed as 2325.9. The 50% inhibitory concentration (IC50) in the data set with MCF7 [2] was found to be 3.42 µM; in the data set on Plasmodium falciparum [3], 0.00147 µM; in [4], 3.29 µM; in data set [5] it was 72.2 µM; with Plasmodium falciparum [7], 0.00198 µM; with TK-10, 3.6 µM. The selectivity ratio in data set [10] was found to be 36500.
For the molecule `CC[C@H]1CN2CCc3cc(OC)c(OC)cc3[C@@H]2C[C@@H]1C[C@H]1NCCc2cc(OC)c(OC)cc21` [EMETINE], the IC50 in data set [5] turned out to be 0.05 µM.
With `COc1ccc(C(=O)/C=C/c2ccc(C(=O)O)cc2)cc1[N+](=O)[O-]`, the “Ratio IC50” value came out at 0.4 in data set [1]; 0.8 in [6]; 0.7 in data set [8]; 2.2 with UACC-62; 3 with MCF7 [9]; 1.4 with WI-38. The “Ratio IC50” value in data set [11] stood at 0.3. For the same molecule, the IC50 in the data set with MCF7 [2] worked out at 9.52 µM; in the data set with Plasmodium falciparum [3] it was 0.0312 µM; in [4] it was 13.4 µM; in [5], 29 µM; in the data set on Plasmodium falciparum [7], 0.0407 µM; in the data set on TK-10, 21.1 µM. In data set [10], the selectivity ratio is 0.7.
